This passage reports EC50 and inhibition results from patent US6750348B1, “Chemokine receptor binding heterocyclic compounds” (AnorMED, Inc., priority 1999, dated 2004).

Common to all, as to assay type: cell-based
Test [1] relates to HIV-1 BaL (CCR5 using). The test can be described thus: Inhibition of HIV-1 (BaL) replication in PHA-stimulated PBMC's (MTT). The conditions noted are these: Human immunodeficiency virus 1, BAL, MTT assay. The method, then: Compounds were tested for their ability to inhibit HIV-1 replication in MT-4 cells or PBMC's (peripheral blood mononucleocytes) using published procedures (for example, see: Labrosse et al. J. Virol. 1998, 6381-6388; Simmons et al. J. Virol. 1998, 8453-8457; Donzella et al. Nature Medicine 1998, 72-77; Schols et al. J. Exp. Med. 1997, 1383-1388; De Clercq et al. Antiviral Res. 1997, 147-156; and Bridger et al. U.S. patent application Ser. No. 09/111,895). In addition to the above references, experimental methods for performing anti-viral assays can also be found in: Bridger et al. J. Med. Chem. 1995, 38, 366-378; Bridger et al. J. Med. Chem. 1996, 39, 109-119; Bridger et al. U.S. Pat. No. 5,698,546; Bridger et al. U.S. Pat. No. 5,583,131; Bridger et al. U.S. Pat. No. 5,817,807; De Clercq et al. Antimicrob. Agents and Chemother. 1994, 38, 668-674.
The HIV-1 strain BaL is M-tropic (macrophage tropic) strain that exclusively uses CCR5 as a co-receptor for entry into cells. PBMC's (from healthy donors) express all chemokine receptors including CXCR4 and CCR5.
(Tetrazolium dyes change colour on reduction, which living cells bring about.)

Test [2] has as its system HIV-1 NL4.3 or IIIB. Nature of the test: Inhibition of HIV-1 (NL4.3 or IIIB) replication in MT-4 cells (MTT). The conditions noted are these: Human immunodeficiency virus 1, IIIB, MT4, read-out: EC50, inhibition of HIV-1 NL4.3 or IIIB replication. Put shortly:
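CXCR4-tropic virus infected MT-4 cells at MOI 0.01 (100× CCID50) across a range of compound concentrations, with cytotoxicity run in parallel. Viable cells counted by MTT after 5 days. EC50 is the concentration protecting 50% of infected cells from viral cytopathicity.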

Test [3] deals with SDF-1α induced Ca flux in SUP-T1 cells. The test can be described thus: Inhibition of SDF-1α induced Ca flux in SUP-T1 cells (FLIPR). Conditions: Homo sapiens, at 20 μg/mL, read-out: inhibited SDF-1α induced Ca flux. The method, then:
(§1) Loading dye: Fluo-3, AM (Molecular Probes F-1241) is dissolved in anhydrous DMSO and stored frozen in aliquots. To increase the solubility of the dye in the loading medium, 10% (w/v) pluronic acid (Molecular Probes F-127) is added to the Fluo-3 stock solution immediately before use.
(§2) HBSS+20 mM Hepes buffer+0.2% BSA, pH 7.4. HBSS 10× [(w/o phenol red and sodium bicarbonate (Gibco 14 065-049)]; Hepes buffer 1M (Gibco 15 630-056), BSA (Sigma A3675). The flux buffer is vacuum-filtered and stored refrigerated for a maximum of 5 days. Before use in the experiment, the buffer is warmed at 37° C. in a waterbath.
(§3) The test compounds were diluted in flux buffer and added to 4 wells of a black microplate (4 parallel measurements per compound).
(§4) The chemokines are diluted in flux buffer to concentrations that are 4-fold higher than the desired concentrations required for stimulation of the cells (i.e. 2.5 nM for SDF-1α and 0.6 nM for RANTES). The chemokines were added to untreated 96-well Sero well compound plates (International Medical, Sterilin code 611F96). In the negative control well's (baseline monitoring), flux buffer is added instead of chemokine. As a positive control to check for dye loading efficiency, 20 μM digitonin (final concentration) was also included. The agonist plate was incubated in the FLIPR (37° C.) for 15-30 min.
SUP-T1 cells were centrifuged at room temperature (RT) and re-suspended in loading medium (RPMI-1640 containing 2% FBS and 4 μM Fluo-3, AM). The cells were incubate at room temperature for 45 min. then washed twice in flux buffer then incubated in flux buffer at room temperature for 10 min. The cells were centrifuged and re-suspended in flux buffer at a density of 3×10^6 cells per mL. […] The microplate is then gently centrifuged at room temperature. Homogeneous spreading of the cells on the bottom of the microplate wells was then confirmed with a microscope and the microplate was incubated in the FLIPR (37° C.) for 10 min. prior to testing.
(§5) The FLIPR settings (camera exposure time and laser power) are adjusted to obtain initial fluorescence values between 8,000 and 10,000 units. After monitoring a 20 second-baseline, the agonist (chemokine) (50 μL) is added by automatic pipettor with black pipette tips. Fluorescence is measured simultaneously in all wells of the microplate every 2 seconds (first 2 min) and thereafter every 6 seconds (additional 2 min). The average ca-flux measured in each set of 4 identical wells (one test compound) was calculated by the FLIPR software.
The compounds of the current invention were tested for inhibition of SDF-1α induced Ca flux in SUP-T1 cells using the method described above.

In test [4] the test system is RANTES induced Ca flux in U87.CCR5 cells. Nature of the test: Inhibition of RANTES induced Ca flux in U87.CCR5 cells (FLIPR). Conditions: read-out: inhibited RANTES induced Ca flux; for inhibition at 20 µg/mL: U-87-CCR5, at 20 μg/mL; for inhibition at 20 µM: U-87-CCR5, at 20 μM. The method, then: as §1, §2, §3, §4, §5
U87.CCR5 cells were seeded into the black microplates (Costar 3603) on the day before the experiment. The culture medium was removed from the cells and 100 μL of loading medium (DMEM+10% FBS+4 μM Fluo-3, AM) was added to each well and the plate was incubate at 37° C. for 45 min. The loading medium was then removed an the cells were washed twice with flux buffer using the CELL WASH microplate washer (Labsystems) followed by incubation in flux buffer for 10 min. at room temperature (the washing procedure was repeated twice). Finally, the wash buffer was removed from the microplate wells and 150 μL of the test compound, diluted in flux buffer to the desired concentration. The microplate was then incubated in the FLIPR drawer for 10 min. prior to testing. Measurements were performed as described above.
The compounds of the current invention were tested for inhibition of RANTES induced Ca flux in U87.CCR5 cells.

As for `c1ccc(CNCc2ccc(CN(C3CCNCC3)C3CCCc4cccnc43)cc2)nc1` (stereo not drawn) [Example 33, N-(2-pyridinylmethyl)-N′-4-piperidinyl-N′-(5,6,7,8-tetrahydro-8-quinolinyl)-1,4-benzenedimethanamine], the EC50 in test [1] and in test [2] was less than 20 µg/mL in each case.

`c1ccc(NCCN(Cc2ccc(CNCc3ccccn3)cc2)C2CCCc3cccnc32)cc1` (stereo not drawn) [Example 34, N-(2-pyridinylmethyl)-N′-[2-[(phenyl)amino]ethyl]-N′-(5,6,7,8-tetrahydro-8-quinolinyl)-1,4-benzenedimethanamine]: the EC50 in test [1] and in test [2] was less than 20 µg/mL throughout.

As to `c1ccc(CNCc2ccc(CN(CCNCc3ccco3)C3CCCc4cccnc43)cc2)nc1` (stereo not drawn) [Example 50, N-(2-pyridinylmethyl)-N′-[2-[(2-furanylmethyl)amino]ethyl]-N′-(5,6,7,8-tetrahydro-8-quinolinyl)-1,4-benzenedimethanamine], in test [2], the EC50 was less than 20 µg/mL. Besides, the inhibition at 20 µg/mL in test [3] and in test [4] was greater than 20% throughout.

With `c1ccc(CNCc2ccc(CN(CCCNCc3ccc4ccccc4c3)C3CCCc4cccnc43)cc2)nc1` (stereo not drawn) [Example 22, N-(2-pyridinylmethyl)-N′-[3-((2-naphthalenylmethyl)amino)propyl]-N′-(5,6,7,8-tetrahydro-8-quinolinyl)-1,4-benzenedimethanamine], the inhibition at 20 µg/mL in test [3] and in test [4] was greater than 20% throughout.

On to `c1ccc(CN2CCC(N(CCc3ccccn3)Cc3cccc(CNCc4ccccn4)c3)C2)cc1` (stereo not drawn) [Example 179, N-[1-(benzyl)-3-pyrrolidinyl]-N-[2-(2-pyridinyl)ethyl]-N′-(2-pyridinylmethyl)-1,3-benzenedimethanamine], for which the inhibition at 20 µM in test [4] was greater than 20%.

Turning to `Fc1cccc2c1CC(N(Cc1ccc(CNCc3ccccn3)cc1)Cc1ncc[nH]1)CC2` (stereo not drawn) [Example 44, N-(2-pyridinylmethyl)-N′-(1H-imidazol-2-ylmethyl)-N′-(8-Fluoro-1,2,3,4-tetrahydro-2-naphthalenyl)-1,4-benzenedimethanamine], the EC50 in test [2] is less than 20 µg/mL. Further, the inhibition at 20 µg/mL in test [4] is greater than 20%.

Consider `N[C@@H]1CCCC[C@H]1N(Cc1ccc(CNCc2ccccn2)cc1)C1CCCc2cccnc21` (relative stereo) [Example 68, N-(2-pyridinylmethyl)-N′-(trans-2-aminocyclohexyl)-N′-(5,6,7,8-tetrahydro-8-quinolinyl)-1,4-benzenedimethanamine], for which the EC50 in test [2] is less than 20 µg/mL. The inhibition at 20 µg/mL in test [4] is greater than 20%.

As for `c1ccc(CNCc2cccc(CN(Cc3ccccn3)Cn3ccnc3)c2)nc1` [Example 118, N-[1H-imidazol-1-ylmethyl]-N,N′-bis(2-pyridinylmethyl)-1,3-benzenedimethanamine], in test [4], the inhibition at 20 µM is greater than 20%.

Turning to `c1ccc(CNCc2ccc(CN(Cc3cc[nH]n3)C3CCCc4cccnc43)cc2)nc1` (stereo not drawn) [Example 25, N-(2-pyridinylmethyl)-N′-[3-pyrazolylmethyl]-N′-(5,6,7,8-tetrahydro-8-quinolinyl)-1,4-benzenedimethanamine], the inhibition at 20 µg/mL in test [4] is greater than 20%.

For `c1ccc(CNCc2ccc(CN(c3nc4ccccc4o3)C3CCCc4cccnc43)cc2)nc1` (stereo not drawn) [Example 67, N-(2-pyridinylmethyl)-N′-(2-benzoxazolyl)-N′-(5,6,7,8-tetrahydro-8-quinolinyl)-1,4-benzenedimethanamine], in test [2], the EC50 is less than 20 µg/mL. Further, the inhibition at 20 µg/mL in test [4] was greater than 20%.

As for `c1ccc(CNCc2ccc(CN(C3CCNC3)C3CCCc4cccnc43)cc2)nc1` (stereo not drawn) [Example 32, N-(2-pyridinylmethyl)-N′-3-pyrrolidinyl-N′-(5,6,7,8-tetrahydro-8-quinolinyl)-1,4-benzenedimethanamine], the EC50 in test [1] and in test [2] was less than 20 µg/mL in each case.

On to `NCCCC[C@H](N)C(=O)N(Cc1ccc(CNCc2ccccn2)cc1)C1CCCc2cccnc21` (stereo partly drawn) [Example 77, N-[[4-[[(2-pyridinylmethyl)amino]methyl]phenyl]methyl]-N-(5,6,7,8-tetrahydro-8-quinolinyl)-(L)-lysinamide], for which the inhibition at 20 µg/mL in test [3] and in test [4] was greater than 20% throughout.

With `c1ccc(CNCc2ccc(CN(Cc3ncc[nH]3)C3CCCc4ncccc43)cc2)nc1` (stereo not drawn) [Example 14, N-(2-pyridinylmethyl)-N′-(1H-imidazol-2-ylmethyl)-N′-(5,6,7,8-tetrahydro-5-quinolinyl)-1,4-benzenedimethanamine], the EC50 in test [1] and in test [2] was less than 20 µg/mL in each case.

Take `C[C@H](N)C(=O)N(Cc1ccc(CNCc2ccccn2)cc1)C1CCCc2cccnc21` (stereo partly drawn) [Example 73, N-[[4-[[(2-pyridinylmethyl)amino]methyl]phenyl]methyl]-N-(5,6,7,8-tetrahydro-8-quinolinyl)-(L)-alaninamide]: the inhibition at 20 µg/mL in test [3] and in test [4] was greater than 20% in each case.

For `O=C([C@@H]1CCCN1)N(Cc1ccc(CNCc2ccccn2)cc1)C1CCCc2cccnc21` (stereo partly drawn) [Example 76, N-[[4-[[(2-pyridinylmethyl)amino]methyl]phenyl]methyl]-N-(5,6,7,8-tetrahydro-8-quinolinyl)-(L)-prolinamide], the inhibition at 20 µg/mL in test [3] and in test [4] was greater than 20% in each case.

In the case of `c1ccc(CNCc2ccc(CNc3cccc4cccnc34)cc2)nc1` [Example 6, N-(2-pyridinylmethyl)-N′-(8-quinolinyl)-1,4-benzenedimethanamine], the EC50 in test [2] is less than 20 µg/mL. In test [4], the inhibition at 20 µg/mL was greater than 20%.

As to `c1ccc(CNCCN(Cc2ccc(CNCc3ccccn3)cc2)C2CCCc3cccnc32)nc1` (stereo not drawn) [Example 49, N-(2-pyridinylmethyl)-N′-[2-[(2-pyridinylmethyl)amino]ethyl]-N′-(5,6,7,8-tetrahydro-8-quinolinyl)-1,4-benzenedimethanamine], the EC50 in test [2] was less than 20 µg/mL. Further, the inhibition at 20 µg/mL in test [3] and in test [4] was greater than 20% in each case.

Take `c1ccc(CNCc2ccc(CN(CCNCc3ccc4ccccc4c3)C3CCCc4cccnc43)cc2)nc1` (stereo not drawn) [Example 47, N-(2-pyridinylmethyl)-N′-[2-[(2-naphthalenylmethyl)amino]ethyl]-N′-(5,6,7,8-tetrahydro-8-quinolinyl)-1,4-benzenedimethanamine]: the EC50 in test [2] was less than 20 µg/mL. For the same compound, the inhibition at 20 µg/mL in test [3] and in test [4] was greater than 20% each time.

The EC50 is the concentration at which the effect is half-maximal.
